According to patent publication US20060052600A1, “Amino-functional chalcones” (priority 2002, published 2006):
≈ marks a conversion by molar mass, not a printed value.

Experiments:
[1] = system: Staphylococcus aureus ATCC33591 (resistant to methicillin); test: MIC determination in broth microdilution assay
[2] = system: Enterococcus faecium #17501 (vancomycin-resistant clinical isolate); test: MIC determination in broth microdilution assay
[3] = system: Staphylococcus intermedius #2357 (clinical isolate); test: MIC determination in broth microdilution assay
[4] = system: panel of non-fastidious bacteria (Gram-positive pathogens and Eschericia coli); test: Activity against non-fastidious bacteria (panel, results in words); settings: Gram-positive pathogens
[5] = system: Eschericia coli ESS; test: MIC determination in broth microdilution assay
[6] = system: Enterococcus faecalis ATCC29212; test: MIC determination in broth microdilution assay
[7] = system: Streptococcus pneumoniae #998 (clinical isolate); test: MIC determination in broth microdilution assay
[8] = system: Staphylococcus aureus ATCC29213; test: MIC determination in broth microdilution assay
[9] = Determination of metabolic stability (liver microsomes); format: in vitro ADME, rat; settings: for Metabolic turn-over (rat) in vitro: 20 μM, 15 min, 37° C.
Experimental: Samples were incubated for 15 min at 37° C. and the reactions were terminated by addition of equal volumes of acetonitrile. Blank incubations were performed at the same concentration but without addition of microsomes. Both blank and microsome-containing samples were made in […] of three. […] The fraction of compound metabolised during the 15 min of incubation was determined by comparison of blank and microsome-containing samples using a Waters Alliance 2690 separation module and Waters 996 PDA-detector (Waters. […] This was followed by a 5 minutes linear gradient to initial conditions, which were maintained for 5 min. The flow rate was 0.20 ml/min and injection volume 10 μl.

[10] = system: DHODH (dihydroorotate dehydrogenase); test: DHODH assay; format: biochemical; settings: test concentration not given
[11] = Determination of solubility; format: physicochemical; settings: 0.3 M phosphate buffer, 24 hours
Experimental: Solubility of the compounds was determined by preparing a saturated solution of compound in 0.3 M phosphate buffer (pH 7.4±0.3) in a brown glass tube. The suspensions were rotated slowly for 24 hours. Aliquots were centrifuged for 10 minutes at 14.000 rpm and supernatants were diluted in 40% (v/v) acetonitrile in water prior to HPLC analysis. Concentrations of analytes were quantified against a standard curve and used as term of solubility.
The HPLC-UV method used for the assessment of solubility is the same as used in the in vitro metabolism assay.

[12] = system: panel of anaerobic bacteria (Bacteroides fragilis, Clostridium perfringens, Clostridium difficele); format: cell-based; settings: single concentration 100 μM

## CCCCN(CCCC)c1ccc(/C=C/C(=O)c2ccccc2CN(C)C)cc1 [A030, (E)-3-(4-Dibutylamino-phenyl)-1-(2-dimethylaminomethyl-phenyl)-propenone]
[1]
  MIC, B: Staphylococcus aureus ATCC33591: 9.4 µM (≈ 3.69 µg/mL)
[2]
  MIC, E: Enterococcus faecium #17501: 18.8 µM (≈ 7.38 µg/mL)
[3]
  MIC, C: Staphylococcus intermedius #2357: 9.4 µM (≈ 3.69 µg/mL)
[4]
  potency against Gram-positive pathogens in comparison with Licochalcone A: increased potency
[5]
  MIC, H: Eschericia coli ESS: 18.8 µM (≈ 7.38 µg/mL)
  activity against the ESS strain of E. coli: considerable activity
[6]
  MIC, D: Enterococcus faecalis ATCC29212: 18.8 µM (≈ 7.38 µg/mL)
[7]
  MIC, F: Streptococcus pneumoniae #998: 18.8 µM (≈ 7.38 µg/mL)
[8]
  MIC, A: Staphylococcus aureus ATCC29213: 9.4 µM (≈ 3.69 µg/mL)

## CNCc1cccc(/C=C/C(=O)c2ccc(OC)cc2)c1 [A099, (E)-1-(4-Methoxy-phenyl)-3-(3-methylaminomethyl-phenyl)-propenone]
[9]
  Metabolic turn-over (rat) in vitro: 7%

## COc1ccc(OC)c(/C=C/C(=O)c2ccccc2CN(C)C)c1 [A029, (E)-3-(2,5-Dimethoxy-phenyl)-1-(2-dimethylaminomethyl-phenyl)-propenone]
[9]
  Metabolic turn-over (rat) in vitro: 3%

## COc1ccc(Nc2cccnc2)cc1/C=C/C(=O)c1ccccc1CN(C)C [A102, (E)-1-(2-Dimethylaminomethyl-phenyl)-3-[2-methoxy-5-(pyridin-3-ylamino)-phenyl]-propenone]
[9]
  Metabolic turn-over (rat) in vitro: 2%
[9]; rat
  metabolism (turn-over), rat: 2%

## CCCCN(CCCC)c1cccc(/C=C/C(=O)c2ccc(OC)c(CN(C)C)c2)c1 [A129, (E)-3-(3-Dibutylamino-phenyl)-1-(3-dimethylaminomethyl-4-methoxy-phenyl)-propenone]
[1]
  MIC, B: Staphylococcus aureus ATCC33591: 9.4 µM (≈ 3.97 µg/mL)
[2]
  MIC, E: Enterococcus faecium #17501: 9.4 µM (≈ 3.97 µg/mL)
[3]
  MIC, C: Staphylococcus intermedius #2357: 9.4 µM (≈ 3.97 µg/mL)
[5]
  MIC, H: Eschericia coli ESS: 9.4 µM (≈ 3.97 µg/mL)
[6]
  MIC, D: Enterococcus faecalis ATCC29212: 9.4 µM (≈ 3.97 µg/mL)
[7]
  MIC, F: Streptococcus pneumoniae #998: 37.5 µM (≈ 15.8 µg/mL)
[8]
  MIC, A: Staphylococcus aureus ATCC29213: 4.7 µM (≈ 1.99 µg/mL)

## C=CC(C)(C)c1cc(/C=C/C(=O)c2cccc(CN(C)C)c2)c(OC)cc1O [A137, (E)-3-[5-(1,1-Dimethyl-allyl)-4-hydroxy-2-methoxy-phenyl]-1-(3-dimethylaminomethyl-phenyl)-propenone]
[1]
  MIC, B: Staphylococcus aureus ATCC33591: 9.4 µM (≈ 3.57 µg/mL)
[2]
  MIC, E: Enterococcus faecium #17501: 9.4 µM (≈ 3.57 µg/mL)
[3]
  MIC, C: Staphylococcus intermedius #2357: 9.4 µM (≈ 3.57 µg/mL)
[6]
  MIC, D: Enterococcus faecalis ATCC29212: 9.4 µM (≈ 3.57 µg/mL)
[7]
  MIC, F: Streptococcus pneumoniae #998: 37.5 µM (≈ 14.2 µg/mL)
[8]
  MIC, A: Staphylococcus aureus ATCC29213: 4.7 µM (≈ 1.78 µg/mL)

## CCN(CC)Cc1ccccc1C(=O)/C=C/c1ccc(Cl)cc1Cl [A045, (E)-3-(2,4-Dichloro-phenyl)-1-(2-diethylaminomethyl-phenyl)-propenone]
[10]
  Inhibition of DHODH: 20%

## C=CC(C)(C)c1cc(/C=C/C(=O)c2ccccc2CN2CCN(C)CC2)c(OC)cc1Cl [A083, (E)-3-[4-Chloro-5-(1,1-dimethyl-allyl)-2-methoxy-phenyl]-1-[2-(4-methyl-piperazin-1-ylmethyl)-phenyl]-propenone]
[1]
  MIC, B: Staphylococcus aureus ATCC33591: 9.4 µM (≈ 4.26 µg/mL)
[2]
  MIC, E: Enterococcus faecium #17501: 9.4 µM (≈ 4.26 µg/mL)
[3]
  MIC, C: Staphylococcus intermedius #2357: 18.8 µM (≈ 8.52 µg/mL)
[4]
  potency against Gram-positive pathogens in comparison with Licochalcone A: increased potency
[5]
  MIC, H: Eschericia coli ESS: 9.4 µM (≈ 4.26 µg/mL)
  activity against the ESS strain of E. coli: considerable activity
[6]
  MIC, D: Enterococcus faecalis ATCC29212: 18.8 µM (≈ 8.52 µg/mL)
[7]
  MIC, F: Streptococcus pneumoniae #998: 18.8 µM (≈ 8.52 µg/mL)
[8]
  MIC, A: Staphylococcus aureus ATCC29213: 9.4 µM (≈ 4.26 µg/mL)

## CN1CCN(Cc2cccc(C(=O)/C=C/c3ccc(Cl)cc3Cl)c2)CC1 [A021, (E)-3-(2,4-Dichloro-phenyl)-1-[3-(4-methyl-piperazin-1-ylmethyl)-phenyl]-propenone]
[10]
  Inhibition of DHODH: 27%

## COc1ccc(C(=O)/C=C/c2cccc(CNCCN(C)C)c2)cc1 [A010, (E)-3-{3-[(2-Dimethylamino-ethylamino)-methyl]-phenyl}-1-(4-methoxy-phenyl)-propenone]
[9]
  Metabolic turn-over (rat) in vitro: 1%
[11]
  Solubility in aqueous buffer at pH 7.4: 33.4 mg/ml

## O=C(/C=C/c1ccc(Cl)cc1Cl)c1ccccc1CN1CCOCC1 [A037, (E)-3-(2,4-Dichloro-phenyl)-1-(2-morpholin-4-ylmethyl-phenyl)-propenone]
[12]
  activity against anaerobic bacteria: activity against all microorganisms within the test panel

## CCCN(CCC)c1ccc(/C=C/C(=O)c2ccccc2CN(C)C)c(OCC)c1 [A084, (E)-1-(2-Dimethylaminomethyl-phenyl)-3-(4-dipropylamino-2-ethoxy-phenyl)-propenone]
[5]
  activity against the ESS strain of E. coli: considerable activity

## CCCCN(CCCC)c1ccc(/C=C/C(=O)c2ccc(OC)c(CN(C)C)c2)cc1 [A110, (E)-3-(4-Dibutylamino-phenyl)-1-(3-dimethylaminomethyl-4-methoxy-phenyl)-propenone]
[9]
  Metabolic turn-over (rat) in vitro: 6%

## CN(C)Cc1cccc(C(=O)/C=C/c2ccc(Cl)cc2Cl)c1 [A020, (E)-3-(2,4-Dichloro-phenyl)-1-(3-dimethylaminomethyl-phenyl)-propenone]
[10]
  Inhibition of DHODH: 23%

## COc1ccc(OC)c(/C=C/C(=O)c2ccccc2CN2CCNCC2)c1 [A049, (E)-3-(2,5-Dimethoxy-phenyl)-1-(2-piperazin-1-ylmethyl-phenyl)-propenone]
[9]
  Metabolic turn-over (rat) in vitro: 0%
[11]
  Solubility in aqueous buffer at pH 7.4: 6.3 mg/ml

## CN(C)Cc1ccccc1C(=O)/C=C/c1cccc(Nc2cccnc2)c1 [A090, (E)-1-(2-Dimethylaminomethyl-phenyl)-3-[3-(pyridin-3-ylamino)-phenyl]-propenone]
[12]
  activity against anaerobic bacteria: activity against all microorganisms within the test panel

## CN1CCN(Cc2ccccc2C(=O)/C=C/c2ccc(Cl)cc2Cl)CC1 [A026, (E)-3-(2,4-Dichloro-phenyl)-1-[2-(4-methyl-piperazin-1-ylmethyl)-phenyl]-propenone]
[12]
  activity against anaerobic bacteria: activity against all microorganisms within the test panel

## COc1ccc(C(=O)/C=C/c2cccc(CN3CCN(C)CC3)c2)cc1 [A013, (E)-1-(4-Methoxy-phenyl)-3-[3-(4-methyl-piperazin-1-ylmethyl)-phenyl]-propenone]
[11]
  Solubility in aqueous buffer at pH 7.4: 31.2 mg/ml

## COc1ccc(C(=O)/C=C/c2cccc(CN(C)CCN(C)C)c2)cc1 [A069, (E)-3-(3-{[(2-Dimethylamino-ethyl)-methyl-amino]-methyl}-phenyl)-1-(4-methoxy-phenyl)-propenone]
[11]
  Solubility in aqueous buffer at pH 7.4: >10 mg/ml

## CN(C)Cc1ccc(C(=O)/C=C/c2ccc(Cl)cc2Cl)cc1 [A011, (E)-3-(2,4-Dichloro-phenyl)-1-(4-dimethylaminomethyl-phenyl)-propenone]
[12]
  activity against anaerobic bacteria: activity against all microorganisms within the test panel

## COc1ccc(C(=O)/C=C/c2ccc(OC)c(CN(C)C)c2)cc1 [A086, (E)-3-(3-Dimethylaminomethyl-4-methoxy-phenyl)-1-(4-methoxy-phenyl)-propenone]
[11]
  Solubility in aqueous buffer at pH 7.4: 8.9 mg/ml

## CCCCN(CCCC)c1ccc(/C=C/C(=O)c2ccc(CN3CCN(C)CC3)cc2)cc1 [A025, (E)-3-(4Dibutylamino-phenyl)-1-[4-(4-methyl-piperazin-1-ylmethyl)-phenyl]-propenone]
[1]
  MIC, B: Staphylococcus aureus ATCC33591: 9.4 µM (≈ 4.21 µg/mL)
[2]
  MIC, E: Enterococcus faecium #17501: 9.4 µM (≈ 4.21 µg/mL)
[3]
  MIC, C: Staphylococcus intermedius #2357: 9.4 µM (≈ 4.21 µg/mL)
[4]
  potency against Gram-positive pathogens in comparison with Licochalcone A: increased potency
[5]
  MIC, H: Eschericia coli ESS: 75.0 µM (≈ 33.6 µg/mL)
[6]
  MIC, D: Enterococcus faecalis ATCC29212: 9.4 µM (≈ 4.21 µg/mL)
[7]
  MIC, F: Streptococcus pneumoniae #998: 37.5 µM (≈ 16.8 µg/mL)
[8]
  MIC, A: Staphylococcus aureus ATCC29213: 9.4 µM (≈ 4.21 µg/mL)
[10]
  Inhibition of DHODH: 26%

## CCCCN(CCCC)c1ccc(/C=C/C(=O)c2ccc(CN(C)C)cc2)cc1 [A033, (E)-3-(4-Dibutylamino-phenyl)-1-(4-dimethylaminomethyl-phenyl)-propenone]
[1]
  MIC, B: Staphylococcus aureus ATCC33591: 9.4 µM (≈ 3.69 µg/mL)
[2]
  MIC, E: Enterococcus faecium #17501: 9.4 µM (≈ 3.69 µg/mL)
[3]
  MIC, C: Staphylococcus intermedius #2357: 4.7 µM (≈ 1.85 µg/mL)
[4]
  potency against Gram-positive pathogens in comparison with Licochalcone A: increased potency
[5]
  MIC, H: Eschericia coli ESS: 150.0 µM (≈ 58.9 µg/mL)
[6]
  MIC, D: Enterococcus faecalis ATCC29212: 9.4 µM (≈ 3.69 µg/mL)
[7]
  MIC, F: Streptococcus pneumoniae #998: 75.0 µM (≈ 29.4 µg/mL)
[8]
  MIC, A: Staphylococcus aureus ATCC29213: 4.7 µM (≈ 1.85 µg/mL)

## COc1ccc(C(=O)/C=C/c2ccc(CNCCN(C)C)cc2)cc1 [A005, (E)-3-{4-[(2-Dimethylamino-ethylamino)-methyl]-phenyl}-1-(4-methoxy-phenyl)-propenone]
[11]
  Solubility in aqueous buffer at pH 7.4: >6 mg/ml
